Experimental data published in patent US11685732B2, “MYST family histone acetyltransferase inhibitors” (Epizyme, Inc., priority 2017, dated 2023).

Key:
[1] = biological target: KAT-5 (Homo sapiens (Human), UniProt Q92993); experiment: KAT-5 biochemical inhibition assay (SAMDI mass spectrometry)
How it was run: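 KAT-5 at 9 nM final was preincubated with serially diluted compound (2% DMSO) in 50 mM Tris pH 8.0 with 1 mM DTT. Reaction ran with 1 μM peptide substrate and 0.5 μM acetyl-CoA for 90 min at 25° C, was quenched with 0.5% formic acid, and was read by SAMDI-TOF mass spectrometry.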

[2] = biological target: KAT-6A (Homo sapiens (Human), UniProt Q92794); experiment: KAT-6A biochemical inhibition assay (SAMDI mass spectrometry)
Sequence of KAT-6A (Q92794 other isoform, or with tags, fused parts or gaps): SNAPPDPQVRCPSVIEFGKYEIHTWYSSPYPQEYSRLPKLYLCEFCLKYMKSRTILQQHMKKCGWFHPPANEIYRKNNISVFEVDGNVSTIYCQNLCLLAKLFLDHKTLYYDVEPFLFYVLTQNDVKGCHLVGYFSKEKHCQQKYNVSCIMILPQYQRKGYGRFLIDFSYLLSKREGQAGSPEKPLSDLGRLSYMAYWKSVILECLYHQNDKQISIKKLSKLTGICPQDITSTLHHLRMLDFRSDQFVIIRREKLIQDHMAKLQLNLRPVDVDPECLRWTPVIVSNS
How it was run: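 Enzyme (12.5 nM final) pre-incubated with serially diluted compounds (2% DMSO final) in 50 mM Tris pH 8.0 with Tween20, gelatin and 1 mM DTT. Reaction started with 1 μM peptide substrate and 1 μM acetyl-CoA, run 90 min at 25 °C, quenched with 0.5% formic acid, read by SAMDI-TOF mass spectrometry; IC50 derived.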

[3] = biological target: KAT-7 (Homo sapiens (Human), UniProt O95251); experiment: KAT-7 biochemical inhibition assay (SAMDI mass spectrometry)
Sequence of KAT-7 (O95251 other isoform, or with tags, fused parts or gaps): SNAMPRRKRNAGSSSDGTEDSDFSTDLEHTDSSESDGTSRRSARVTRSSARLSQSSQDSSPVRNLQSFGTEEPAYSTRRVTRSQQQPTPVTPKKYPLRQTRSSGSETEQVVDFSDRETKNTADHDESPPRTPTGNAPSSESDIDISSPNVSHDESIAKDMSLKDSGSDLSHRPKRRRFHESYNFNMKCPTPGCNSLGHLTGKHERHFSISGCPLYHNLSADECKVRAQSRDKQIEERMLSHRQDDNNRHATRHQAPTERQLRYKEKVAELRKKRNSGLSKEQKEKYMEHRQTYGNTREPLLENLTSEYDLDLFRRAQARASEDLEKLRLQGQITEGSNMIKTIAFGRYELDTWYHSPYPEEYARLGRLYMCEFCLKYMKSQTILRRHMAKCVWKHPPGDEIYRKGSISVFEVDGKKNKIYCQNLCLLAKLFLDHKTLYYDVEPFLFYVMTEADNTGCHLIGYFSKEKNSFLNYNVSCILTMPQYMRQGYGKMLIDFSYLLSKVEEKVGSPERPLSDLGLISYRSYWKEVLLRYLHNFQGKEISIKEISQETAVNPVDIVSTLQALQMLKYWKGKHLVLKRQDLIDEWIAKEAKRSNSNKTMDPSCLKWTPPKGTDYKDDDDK
How it was run: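 KAT-7 (6 nM) was pre-incubated with serially diluted compound (2% DMSO) in Tris pH 8.0 with DTT. Reaction with 1 μM peptide and 2 μM acetyl-CoA ran 120 min at 25 °C and was stopped with 0.5% formic acid. Acetylation was read by SAMDI-TOF mass spectrometry to give IC50.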

[4] = biological target: KAT-8 (Homo sapiens (Human), UniProt Q9H7Z6); experiment: KAT-8 biochemical inhibition assay (SAMDI mass spectrometry)
Sequence of KAT-8 (Q9H7Z6 other isoform, or with tags, fused parts or gaps): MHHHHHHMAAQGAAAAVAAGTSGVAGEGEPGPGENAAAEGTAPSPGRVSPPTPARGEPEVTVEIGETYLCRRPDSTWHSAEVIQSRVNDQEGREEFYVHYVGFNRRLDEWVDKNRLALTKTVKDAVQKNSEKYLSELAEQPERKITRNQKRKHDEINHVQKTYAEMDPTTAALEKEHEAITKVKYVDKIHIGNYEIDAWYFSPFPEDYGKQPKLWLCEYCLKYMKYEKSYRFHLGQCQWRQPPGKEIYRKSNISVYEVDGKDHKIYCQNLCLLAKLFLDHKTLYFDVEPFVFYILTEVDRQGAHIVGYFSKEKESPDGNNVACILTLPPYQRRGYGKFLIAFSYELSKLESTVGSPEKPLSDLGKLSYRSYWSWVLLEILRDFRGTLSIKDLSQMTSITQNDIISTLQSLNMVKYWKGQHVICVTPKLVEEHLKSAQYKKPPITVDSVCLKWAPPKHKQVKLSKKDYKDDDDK
How it was run: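 Compounds in 2% DMSO pre-incubated with 12.5 nM enzyme in 50 mM Tris pH 8.0 with Tween20, gelatin and 1 mM DTT. Then 1 μM peptide and 5 μM acetyl-CoA were added, 90 min at 25 °C; formic acid stop and SAMDI-TOF mass spectrometry for IC50.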

Sequence of KAT-5 (Q92993 other isoform, or with tags, fused parts or gaps): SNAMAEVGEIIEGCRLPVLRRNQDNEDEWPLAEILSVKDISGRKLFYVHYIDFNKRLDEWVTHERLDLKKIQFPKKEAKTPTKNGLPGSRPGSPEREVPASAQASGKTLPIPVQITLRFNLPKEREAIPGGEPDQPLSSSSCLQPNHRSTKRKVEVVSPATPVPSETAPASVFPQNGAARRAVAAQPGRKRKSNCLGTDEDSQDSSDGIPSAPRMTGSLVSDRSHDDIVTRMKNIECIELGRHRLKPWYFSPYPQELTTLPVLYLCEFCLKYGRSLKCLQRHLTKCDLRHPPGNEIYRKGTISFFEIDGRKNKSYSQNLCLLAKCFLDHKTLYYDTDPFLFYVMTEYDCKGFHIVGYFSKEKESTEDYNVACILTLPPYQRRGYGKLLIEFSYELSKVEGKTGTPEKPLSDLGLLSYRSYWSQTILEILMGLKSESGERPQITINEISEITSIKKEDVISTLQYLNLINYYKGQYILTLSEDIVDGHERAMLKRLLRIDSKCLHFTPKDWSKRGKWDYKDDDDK

IC50 [1] [µM]	IC50 [2] [µM]	IC50 [3] [µM]	IC50 [4] [µM]	SMILES
< 10	< 10	< 10	10 to 50	Cn1cnc(-c2cc(Cl)c(F)c(C(=O)NNS(=O)(=O)CC3CC4CCC(C3)O4)c2)c1 (centres unmarked) [Compound I-242]
10 to 50	< 10	50 to 100	> 100	Cc1ccn(-c2cc(Cl)c(F)c(C(=O)NNS(=O)(=O)CC3CCOCC3)c2)n1 [Compound I-43]
< 10	< 10	< 10	10 to 50	Cn1cnc(-c2cc(Cl)c(F)c(C(=O)NNS(=O)(=O)CC3CCc4ccccc4C3)c2)c1 (centres unmarked) [Compound I-383]
< 10	< 10	< 10	10 to 50	COc1ccc(CN(C)C(=O)N2CC(CS(=O)(=O)NNC(=O)c3cc(-c4cn(C)cn4)cc(Cl)c3F)C2)cc1 [Compound I-202]
10 to 50	< 10	< 10	10 to 50	CC(=O)Nc1ccccc1S(=O)(=O)NNC(=O)c1cc(-c2cn(C)cn2)cc(Cl)c1F [Compound I-370]
< 10	< 10	< 10	10 to 50	Cn1cnc(-c2cc(Cl)c(F)c(C(=O)NNS(=O)(=O)c3cccc(F)c3)c2)c1 [Compound I-320]
10 to 50	10 to 50	< 10	10 to 50	CN(C)C(=O)CS(=O)(=O)NNC(=O)c1cc(-c2cn(C)cn2)cc(Cl)c1F [Compound I-314]
< 10	< 10	< 10	10 to 50	Cn1cnc(-c2cc(Cl)c(F)c(C(=O)NNS(=O)(=O)C[C@H]3CCC[C@H](O)C3)c2)c1 [Compound I-306]
< 10	< 10	< 10	> 100	CNc1ccccc1S(=O)(=O)NNC(=O)c1cc(-c2cn(C)cn2)cc(Cl)c1F [Compound I-385]
< 10	< 10	< 10	10 to 50	Cn1cnc(-c2cc(Cl)c(F)c(C(=O)NNS(=O)(=O)CC3CCN(C(N)=O)C3)c2)c1 (centres unmarked) [Compound I-205]

Continued, compound first:

SMILES	IC50 [1] [µM]	IC50 [2] [µM]	IC50 [3] [µM]	IC50 [4] [µM]
Cn1cnc(-c2cc(Cl)c(F)c(C(=O)NNS(=O)(=O)C[C@H]3CC[C@H](NC(=O)c4cccnc4)CC3)c2)c1 [Compound I-241]	< 10	< 10	< 10	10 to 50
Cn1cnc(-c2cc(Cl)c(F)c(C(=O)NNS(=O)(=O)CC3CCCC(N)C3)c2)c1 (centres unmarked) [Compound I-103]	10 to 50	10 to 50	< 10	10 to 50
Cn1cnc(-c2cc(Cl)c(F)c(C(=O)NNS(=O)(=O)C[C@H]3CC[C@H](NC(=O)Cc4ccncc4)CC3)c2)c1 [Compound I-254]	< 10	< 10	< 10	10 to 50
CCn1cnc(C)c1-c1cc(Cl)c(F)c(C(=O)NNS(=O)(=O)CC2CCCCC2)c1 [Compound I-40]	> 100	> 100	> 100	> 100
CNC(=O)Cn1nc(-c2cc(Cl)c(F)c(C(=O)NNS(=O)(=O)CC3CCCCC3)c2)cc1C [Compound I-311]	< 10	10 to 50	< 10	10 to 50
CN(C(=O)OC(C)(C)C)c1cccc(S(=O)(=O)NNC(=O)c2cc(-c3cn(C)cn3)cc(Cl)c2F)c1 [Compound I-343]	< 10	< 10	< 10	10 to 50
CCNC(=O)NC1CCC(CS(=O)(=O)NNC(=O)c2cc(-c3cn(C)cn3)cc(Cl)c2F)C1 (centres unmarked) [Compound I-286]	< 10	< 10	< 10	10 to 50
Cn1cnc(-c2cc(Cl)c(F)c(C(=O)NNS(=O)(=O)c3ccc(OCc4ccccc4)nc3)c2)c1 [Compound I-354]	< 10	10 to 50	< 10	10 to 50
CC(C)NC(=O)N1CCCC(CS(=O)(=O)NNC(=O)c2cc(-c3cn(C)cn3)cc(Cl)c2F)C1 (centres unmarked) [Compound I-187]	< 10	< 10	< 10	10 to 50
Cn1cnc(-c2cc(Cl)c(F)c(C(=O)NNS(=O)(=O)CC3CCC(NC(N)=O)C3)c2)c1 (centres unmarked) [Compound I-340]	< 10	< 10	< 10	10 to 50
CCS(=O)(=O)NNC(=O)c1cc(-c2cn(C)cn2)cc(Cl)c1F [Compound I-25]	10 to 50	50 to 100	< 10	> 100
Cn1cnc(-c2cc(Cl)c(F)c(C(=O)NNS(=O)(=O)C[C@H]3C[C@@H](NC(N)=O)C3)c2)c1 [Compound I-235]	< 10	< 10	< 10	10 to 50
Cn1cnc(-c2cc(Cl)c(F)c(C(=O)NNS(=O)(=O)CC3CC4CC4C3)c2)c1 (centres unmarked) [Compound I-289]	< 10	< 10	< 10	10 to 50
CCC(=O)N(C)C1CCCC(CS(=O)(=O)NNC(=O)c2cc(-c3cn(C)cn3)cc(Cl)c2F)C1 (centres unmarked) [Compound I-294]	< 10	< 10	< 10	10 to 50
COCCN(Cc1ccc(OC)cc1)C(=O)N1CCCC(CS(=O)(=O)NNC(=O)c2cc(-c3cn(C)cn3)cc(Cl)c2F)C1 (centres unmarked) [Compound I-216]	< 10	10 to 50	< 10	10 to 50
CNC(=O)N1CCC(CS(=O)(=O)NNC(=O)c2cc(-c3cn(C)cn3)cc(Cl)c2F)C1 (centres unmarked) [Compound I-78]	< 10	10 to 50	< 10	10 to 50
